# According to PMC10958117, “G-site residue S67 is involved in the fungicide-degrading activity of a tau class glutathione S-transferase from Carica papaya” (The Journal of Biological Chemistry, 2024):
# Columns and labels:
# [1] = target: T1, tau class glutathione S-transferase from Carica papaya (TCpGST) (Carica papaya, UniProt O49821); experiment: HPLC degradation assay ([…] after […] h); S67A inactive; assay type: biochemical; set-up: gene PGST1; details: 120 min
# [2] = target: T1, tau class glutathione S-transferase from Carica papaya (TCpGST); experiment: as above; assay type: biochemical; set-up: gene PGST1; full-length ORF (657 bp), C-terminal His6, pET-30a, E. coli BL21(DE3), Ni-NTA purified; details: 120 min
# T1 sequence (O49821 1-218): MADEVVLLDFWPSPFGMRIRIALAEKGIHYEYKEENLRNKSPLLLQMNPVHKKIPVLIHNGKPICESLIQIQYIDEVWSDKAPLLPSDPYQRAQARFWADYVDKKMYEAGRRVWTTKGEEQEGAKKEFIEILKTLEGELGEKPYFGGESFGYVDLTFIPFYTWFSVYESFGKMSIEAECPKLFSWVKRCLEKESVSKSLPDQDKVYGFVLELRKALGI
Structure (SMILES),% [1] [%],% [2] [%]
"c1ccc2[nH]c(-c3cscn3)nc2c1 [compound 16, thiabendazole]",69,–
"N#Cc1c(Cl)c(Cl)c(Cl)c(C#N)c1Cl [compound 11, chlorothalonil]",–,26
